The values that follow come from patent US20150045610A1, “METHOD OF MODIFYING SPERMATOGENESIS, SPERMIOGENESIS AND/OR FERTILITY IN MAMMALS” (Monell Chemical Senses Center, priority 2012, published 2015).

Each structure is given as a SMILES string. Values after ≈ are worked out from the molar mass of the structure shown.

Data set [1] has as its system PDE 8. Particulars: read-out: IC50, PDE 8; cited from earlier work.
The subject of data set [2] is PDE 1. The following applies: cited from earlier work.
Data set [3] deals with T1, humanized mhT1R3 (Homo sapiens, UniProt Q7RTX0, A109T/A120V/A176D/A197V/A198V/A228S/A231N/A248T/A280V/A282S/A302S/A412V/A417V/A46T/A537T/C375D/D124S/D249S/D250G/D364H/D419E/D470T/D491G/D88A/DEL352-352/DEL488-489/E172D/E199T/E203N/E217D/E356N/E45S/E481Q/E505D/E525K/E545Q/F540P/F555L/G168S/G205S/G311T/G314N/G355L/G360D/G414H/G438R/G439D/G463S/G50T/G542N/H261R/H278R/H281Y/H332P/I485M/I536F/INS376MLQNLSSG/K32Q/K339E/K422L/K494V/K86G/L173R/L245Q/L272V/L29F/L354S/L385Q/L433M/L458M/L483S/L71F/L74M/M151L/M315I/M318V/M31A/N285S/N386L/N532H/N68L/P112S/P246H/P335S/P416H/P420H/P441T/P60I/Q221E/Q257L/Q317R/Q330L/Q336H/Q359L/Q372R/Q418S/Q504K/Q531K/R123Q/R247D/R252Q/R291G/R30K/R357A/R443Q/R467V/R473T/R479Q/R482Q/R486Y/R498Q/R52N/R550K/R553A/R556P/R560K/R56Q/S251Q/S267K/S289H/S290H/S392A/S446A/S447E/S464P/S477T/S490P/S53Q/S559P/S58N/S67P/T195Q/T346A/T377L/T390I/T434S/T480L/T63N/V152I/V277A/V366M/V36I/V381L/V393T/V437A/V465T/V61P/W72L).
T1 construct: the extracellular domain is of mouse origin and the transmembrane and intracellular domains of human origin; mouse T1R3 extracellular domain (fusion partner replacing the human extracellular domain); expressed in transfected cells; host or cells: transgenic Line 7c mice (T1R3-/-, Gus-/-, mhT1R3+/-)
T1 sequence (Q7RTX0 with tags, fused parts or gaps L29F/R30K/M31A/K32Q/V36I/E45S/A46T/G50T/R52N/S53Q/R56Q/S58N/P60I/V61P/T63N/S67P/N68L/L71F/W72L/L74M/K86G/D88A/A109T/P112S/A120V/R123Q/D124S/M151L/V152I/G168S/E172D/L173R/A176D/T195Q/A197V/A198V/E199T/E203N/G205S/E217D/Q221E/A228S/A231N/L245Q/P246H/R247D/A248T/D249S/D250G/S251Q/R252Q/Q257L/H261R/S267K/L272V/V277A/H278R/A280V/H281Y/A282S/N285S/S289H/S290H/R291G/A302S/G311T/G314N/M315I/Q317R/M318V/Q330L/H332P/P335S/Q336H/K339E/T346A/DEL352-352/L354S/G355L/E356N/R357A/Q359L/G360D/D364H/V366M/Q372R/C375D/INS376MLQNLSSG/T377L/V381L/L385Q/N386L/T390I/S392A/V393T/A412V/G414H/P416H/A417V/Q418S/D419E/P420H/K422L/L433M/T434S/V437A/G438R/G439D/P441T/R443Q/S446A/S447E/L458M/G463S/S464P/V465T/R467V/D470T/R473T/S477T/R479Q/T480L/E481Q/R482Q/L483S/I485M/R486Y/DEL488-489/S490P/D491G/K494V/R498Q/Q504K/E505D/E525K/Q531K/N532H/I536F/A537T/F540P/G542N/E545Q/R550K/R553A/F555L/R556P/S559P/R560K limits assumed): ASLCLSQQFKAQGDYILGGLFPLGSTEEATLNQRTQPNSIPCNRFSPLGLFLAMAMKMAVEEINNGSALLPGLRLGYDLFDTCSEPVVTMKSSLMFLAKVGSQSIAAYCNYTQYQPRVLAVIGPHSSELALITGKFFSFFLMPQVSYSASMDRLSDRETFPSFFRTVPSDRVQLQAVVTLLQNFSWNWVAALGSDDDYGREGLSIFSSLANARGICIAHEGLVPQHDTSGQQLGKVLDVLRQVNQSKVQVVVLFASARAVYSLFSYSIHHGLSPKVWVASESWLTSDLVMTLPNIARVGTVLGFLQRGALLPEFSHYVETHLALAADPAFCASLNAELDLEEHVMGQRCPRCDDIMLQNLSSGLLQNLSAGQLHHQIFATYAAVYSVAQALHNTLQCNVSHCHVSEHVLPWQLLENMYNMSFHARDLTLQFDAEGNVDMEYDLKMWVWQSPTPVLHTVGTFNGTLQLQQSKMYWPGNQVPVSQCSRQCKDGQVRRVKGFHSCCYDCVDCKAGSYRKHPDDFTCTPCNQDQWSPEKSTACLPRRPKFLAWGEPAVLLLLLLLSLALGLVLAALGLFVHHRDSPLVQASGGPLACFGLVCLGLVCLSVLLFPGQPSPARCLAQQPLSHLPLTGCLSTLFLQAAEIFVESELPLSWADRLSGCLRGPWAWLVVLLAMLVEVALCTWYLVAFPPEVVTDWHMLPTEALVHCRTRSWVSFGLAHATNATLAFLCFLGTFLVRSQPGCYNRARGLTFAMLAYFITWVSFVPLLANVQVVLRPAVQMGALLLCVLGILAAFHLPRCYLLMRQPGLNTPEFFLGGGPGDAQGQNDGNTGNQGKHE
Nature of the data set: T1R3 pharmacological block with clofibrate diet (male reproduction). The format is in vivo, mouse. Particulars: clofibrate diet 300 mg/kg body weight, line 7c and WT males. How it is done: Matched groups (six males each) of WT and line 7c mice (expressing the chimerical mhT1R3 transgene on a T1R3/α-gustducin double-null background), 3-6 months old, were fed the indicated diets for 4-6 weeks. Each genotype was tested in two groups, one on the regular diet and one on a test diet with clofibrate. An additional group of males stayed on the test diet for another 4-6 weeks, during which time they were mated with WT females to determine whether the pharmacological intervention was effective. Then the animals were allowed to recover on the regular diet for an additional 4 weeks after the end of the treatment (half-time for total sperm turnover in mice), and again were tested for their reproductive capacity, and then their tissues were analyzed. […]
We observed spermatozoa after clofibrate treatment represent cells that were able to escape the inhibition of clofibric acid, most likely due to very fast clearance and fluctuating levels in rodents. […] Therefore, we measured sperm concentration as an indicator of efficiency of the pharmacological block and to be able to determine the concentration that results in effective sterility. We analyzed testicular morphology, sperm production, sperm motility and sperm function in in vitro fertilization after feeding these animals with the lipid lowering drug clofibrate. […]

Data set [4] can be described thus: solubility. It counts as physicochemical.
The subject of data set [5] is PDE 4. Particulars: quantity not given; read-out: inhibition of PDE 4; cited from earlier work.

For `OCCN(CCO)c1nc(N2CCCCC2)c2nc(N(CCO)CCO)nc(N3CCCCC3)c2n1` [Dipyridamole], the IC50 in data set [1] was 4 to 9 µM. Take `CCOC(=O)C1=C[C@]2(CC)CCCN3CCc4c(n1c1ccccc41)[C@@H]32` [Vinpocetine]: the IC50 in data set [2] is 10 µM. As for `CCOC(=O)C(C)(C)Oc1ccc(Cl)cc1` [clofibrate], the “effect on the health of the animals” value in data set [3] was “no apparent effect”. In addition, the concentration in solution in data set [4] (solubility) came to 5000 µg/mL (≈ 20.6 mM).

As to `COc1ccc(C2CNC(=O)C2)cc1OC1CCCC1` (centres unmarked) [rolipram], in data set [5], the IC50 is […].
